# Reference: ChEMBL document CHEMBL1201862, “PubChem BioAssay data set” (2004)
#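 How tested: cells in 96-well plates exposed to compound for 48 hours at five concentrations. At the GI50, growth is halved.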 Active and inactive are the calls of the source. No stated cut-off is given here; in the data, active = GI50 up to about 1.1 µM and inactive = higher.
# Tests used:
# Experiment in all cases: NCI tumour cell line growth inhibition, 48 h
# UO-31 = test system: UO-31
# HOP-62 = test system: HOP-62
# OVCAR-8 = test system: OVCAR-8
# UACC-257 = test system: UACC-257
# NCI-H226 = test system: NCI-H226
# COLO 205 = test system: COLO 205
# SF-539 = test system: SF-539
# SK-MEL-28 = test system: SK-MEL-28
# UACC-62 = test system: UACC-62
# MDA-MB-231 = test system: MDA-MB-231
# NCI/ADR-RES = test system: NCI/ADR-RES
# RPMI-8226 = test system: RPMI-8226
# EKVX = test system: EKVX
# M14 = test system: M14
# SW-620 = test system: SW-620
# HCT-15 = test system: HCT-15
# HT-29 = test system: HT-29
# SF-268 = test system: SF-268
# OVCAR-5 = test system: OVCAR-5
# HCT-116 = test system: HCT-116
SMILES,GI50 (UO-31),GI50 (HOP-62),GI50 (OVCAR-8),GI50 (UACC-257),GI50 (NCI-H226),GI50 (COLO 205),GI50 (SF-539),GI50 (SK-MEL-28),GI50 (UACC-62),GI50 (MDA-MB-231),GI50 (NCI/ADR-RES),GI50 (RPMI-8226),GI50 (EKVX),GI50 (M14),GI50 (SW-620),GI50 (HCT-15),GI50 (HT-29),GI50 (SF-268),GI50 (OVCAR-5),GI50 (HCT-116)
Oc1ccc(O)c(Cc2ccccc2)c1,15.1 µM (inactive),27.9 µM (inactive),15.4 µM (inactive),25.9 µM (inactive),19.6 µM (inactive),17.4 µM (inactive),10.7 µM (inactive),33.7 µM (inactive),20.2 µM (inactive),19 µM (inactive),16.4 µM (inactive),3.61 µM (inactive),38.5 µM (inactive),23.5 µM (inactive),21.3 µM (inactive),13.6 µM,37 µM (inactive),12.5 µM (inactive),57.5 µM (inactive),
COC(=O)[C@@H]1CN(C(=O)Cc2ccccc2)C(=O)N1,> 100 µM (inactive),> 100 µM (inactive),> 100 µM (inactive),> 100 µM (inactive),> 100 µM (inactive),> 100 µM (inactive),> 100 µM (inactive),> 100 µM (inactive),> 100 µM (inactive),> 100 µM (inactive),> 100 µM (inactive),> 100 µM (inactive),> 100 µM (inactive),> 100 µM (inactive),> 100 µM (inactive),,> 100 µM (inactive),> 100 µM (inactive),> 100 µM (inactive),> 100 µM (inactive)
O=C(CSc1nc2ccccc2c(=O)n1-c1ccccc1)N/N=C1\C(=O)Nc2ccc(F)cc21,2 µM (inactive),2.09 µM (inactive),,2.47 µM (inactive),2.28 µM (inactive),2.64 µM (inactive),3.14 µM (inactive),2.08 µM (inactive),2.24 µM (inactive),2.01 µM (inactive),2.21 µM (inactive),2.3 µM (inactive),2.43 µM (inactive),1.9 µM (inactive),4.24 µM (inactive),2 µM,3.06 µM (inactive),2.25 µM (inactive),2.04 µM (inactive),2.02 µM (inactive)
CCOC(=O)CCc1c(C)c2ccc(O)cc2oc1=O,,> 100 µM (inactive),> 100 µM (inactive),> 100 µM (inactive),> 100 µM (inactive),> 100 µM (inactive),> 100 µM (inactive),> 100 µM (inactive),> 100 µM (inactive),> 100 µM (inactive),> 100 µM (inactive),> 100 µM (inactive),> 100 µM (inactive),> 100 µM (inactive),> 100 µM (inactive),> 100 µM,> 100 µM (inactive),> 100 µM (inactive),> 100 µM (inactive),> 100 µM (inactive)
CCOP(=O)(CCC(O)CNc1nc(N)nc(Cl)c1/N=N/c1ccc(Cl)cc1)OCC (stereo not drawn),4.1 µM (inactive),12.5 µM (inactive),17.7 µM (inactive),13.6 µM (inactive),16.6 µM (inactive),12.8 µM (inactive),> 10 µM (inactive),11.6 µM (inactive),13 µM (inactive),19.3 µM (inactive),11.5 µM (inactive),8.47 µM (inactive),18.8 µM (inactive),,15.9 µM (inactive),6.95 µM,15.3 µM (inactive),15.3 µM (inactive),17.6 µM (inactive),14.7 µM (inactive)
Cc1cc(O)c2c(=O)c3ccccc3[nH]c2c1,,23.2 µM (inactive),23 µM (inactive),20.1 µM (inactive),23.1 µM (inactive),13.2 µM (inactive),15.7 µM (inactive),42.7 µM (inactive),> 10 µM (inactive),32.4 µM (inactive),23.5 µM (inactive),11.8 µM (inactive),41.1 µM (inactive),18.1 µM (inactive),41.6 µM (inactive),11.4 µM,8.63 µM (inactive),26.8 µM (inactive),18.9 µM (inactive),20.3 µM (inactive)
COc1ccc(CNc2nc(NCc3ccc(OC)cc3)nc(NC3CCCC3)n2)cc1,6.43 µM (inactive),3.07 µM (inactive),4.06 µM (inactive),12 µM (inactive),5.07 µM (inactive),3.05 µM (inactive),2.75 µM (inactive),10.9 µM (inactive),,3.54 µM (inactive),2.7 µM (inactive),2.24 µM (inactive),19.9 µM (inactive),2.91 µM (inactive),4.14 µM (inactive),3.19 µM,3.04 µM (inactive),7.18 µM (inactive),3.63 µM (inactive),2.64 µM (inactive)
COc1ccc(-c2cc(=O)c3c(O)cc(O)cc3o2)cc1OC,36.7 µM (inactive),24 µM (inactive),,> 100 µM (inactive),> 100 µM (inactive),> 100 µM (inactive),18.4 µM (inactive),> 100 µM (inactive),61.4 µM (inactive),> 100 µM (inactive),56.8 µM (inactive),64.9 µM (inactive),83.8 µM (inactive),> 100 µM (inactive),> 100 µM (inactive),> 100 µM,81.8 µM (inactive),28.4 µM (inactive),> 100 µM (inactive),28.2 µM (inactive)
C=CCC1(O)c2cccc(O)c2C(=O)c2cccc(O)c21 (stereo not drawn),15.4 µM (inactive),21.4 µM (inactive),25.8 µM (inactive),13 µM (inactive),22.3 µM (inactive),,31.8 µM (inactive),20.5 µM (inactive),,21.1 µM (inactive),11.2 µM (inactive),11.5 µM (inactive),17.4 µM (inactive),16.2 µM (inactive),25.2 µM (inactive),12.2 µM,22.1 µM (inactive),23.3 µM (inactive),22.5 µM (inactive),14.4 µM (inactive)
CCC(=O)N(c1ccccc1)C(C)CN1CCC(O)(c2ccccc2)CC1 (stereo not drawn),> 100 µM (inactive),> 100 µM (inactive),> 100 µM (inactive),> 100 µM (inactive),> 100 µM (inactive),> 100 µM (inactive),> 100 µM (inactive),> 100 µM (inactive),> 100 µM (inactive),> 100 µM (inactive),> 100 µM (inactive),> 100 µM (inactive),> 100 µM (inactive),> 100 µM (inactive),,> 100 µM,58.3 µM (inactive),> 100 µM (inactive),> 100 µM (inactive),80.9 µM (inactive)
COc1ccc(C2C=C(c3ccc4c(c3)OCO4)Oc3c2c(=O)oc2ccccc32)cc1OC (stereo not drawn),0.527 µM (active),> 100 µM (inactive),0.839 µM (active),,0.258 µM (active),0.361 µM (active),0.308 µM (active),> 93.1 µM (inactive),0.294 µM (active),1.36 µM (inactive),0.543 µM (active),0.254 µM (active),16.5 µM (inactive),0.502 µM (active),0.468 µM (active),0.415 µM,0.402 µM (active),0.713 µM (active),0.556 µM (active),0.482 µM (active)
